≈ marks a conversion by molar mass, not a printed value. Marks after values point to notes of the source that are not given here. Where no end group is shown, it is not given here.
Tests used:
S. agalactiae CIT 67 = assay: Broth MIC assay; format: cell-based, Streptococcus agalactiae
Method: (§1) MIC determinations were carried out in triplicate in 96-well microtiter plates (Sarstedt, Newton, NC, USA) as previously described. Initially, 200µL of 1% bovine serum albumin (BSA) (Sigma-Aldrich, St. Louis, MO, USA) (in PBS) was added to the plates which were incubated at 37 °C for 30 min. The solution was removed, plates were washed with 200 µL PBS and then air dried in a laminar flow hood. Target strains (Streptococcus agalactiae, Staphylococcus capitis and Lactococcus lactis) were grown overnight in suitable media under appropriate conditions and were subsequently sub-cultured into fresh broth and allowed to grow to an optical density of ~0.5 (OD600). The culture was then diluted to a final concentration of 10^5 CFU mL^−1 in a volume of 1 mL. The peptides were resuspended in appropriate media to a stock concentration of […] (S. agalactiae and S. capitis strains) and […] (L. lactis strains). Nisin A and nisin derivatives were adjusted to a starting concentration of 15 µM (S. agalactiae and S. capitis strains) or 5 µM (L. lactis strains). […] An aliquot of 100 µL of peptides and or antibiotics were added to the first well, mixed and then 2-fold serial dilutions of each peptide were made in TSBYE broth. Then, 100 µL of target strain was added to each test well, and the plates were incubated at 30 °C or 37 °C for 16 h. The MIC was read as the lowest peptide concentration causing inhibition of visible growth. Experiments were performed in triplicate.

S. capitis AY41 = assay: microbe, parasite or virus in culture; format: cell-based, Staphylococcus capitis
Method: as §1

[1] = test system: clinical isolates of S. agalactiae (n = 5) and S. capitis (n = 5); assay: Deferred antagonism agar-based assay; format: cell-based, Streptococcus agalactiae, Staphylococcus capitis; conditions: pathogenic indicators, n = 10
Method: All plates were supplemented with sub-inhibitory concentration (10 µg/L) of nisin in the form of nisaplin to ensure induction of the nisin mutants.
Site-saturation mutagenesis of three codons, including threonine, lysine and methionine, at positions 2, 12 and 17 of the nisA gene, was carried out as described previously. Briefly, pDF23 (pCI372-PV) was used as a template and oligonucleotides, NisT2deg-FOR and REV, NisK12deg-FOR and REV and Nis17deg-FOR and REV, containing an NNK codon potentially encoding for all twenty standard amino acids. Deferred antagonism agar-based assays were employed to assess the bioactivity of the nisin derivatives (PV, K12X-PV, T2X-PV, and M17X-PV) produced by each strain. Briefly, fresh overnight cultures of each L. lactis test culture was replicated on GM17/TSBYE agar plates containing 0.1% nisaplin using a 96-pin replicator (Boekel, Feasterville, PA, USA) and incubated overnight at 30 °C before being exposed to ultraviolet radiation for 45 min. The plates were then overlayed with GM17/TYSBYE agar (0.75% agar) and seeded (0.5% inoculum) with either Lactococcus lactis MG1614 (NSR-), the nisin resistance protein-expressing indicator strain L. lactis MG1614 pNP40 (NSR+) or TSBYE agar seeded with Staphylococcus capitis (NSR+) or Streptococcus agalactiae (NSR+) isolates. […]

S. capitis AR18 = assay: Broth MIC assay; format: cell-based; conditions: Staphylococcus capitis, AR18, 16 h
Method: as §1

S. capitis AV80 = assay: Broth MIC assay; format: cell-based; conditions: Staphylococcus capitis, AV80, 16 h
Method: as §1

S. capitis BA06 = assay: Broth MIC assay; format: cell-based, Staphylococcus capitis; conditions: Staphylococcus capitis, BA06, 16 h
Method: as §1

S. capitis BD01 = assay: Broth MIC assay; format: cell-based, Staphylococcus capitis
Method: as §1

[2] = cited from earlier work
Description: NSR degrades nisin by cleaving the pept ...

S. agalactiae CIT 239 = assay: Broth MIC assay; format: cell-based, Streptococcus agalactiae; conditions: broth microdilution in TSBYE, 10^5 CFU/mL, 16 h, 37 °C; average of three independent biological repeats
Method: as §1

S. agalactiae CIT 364 = assay: Broth MIC assay; format: cell-based, Streptococcus agalactiae; conditions: broth microdilution in TSBYE, 10^5 CFU/mL, 16 h, 37 °C; average of three independent biological repeats
Method: as §1

S. agalactiae CIT 85 = assay: Broth MIC assay; format: cell-based, Streptococcus agalactiae; conditions: broth microdilution in TSBYE, 10^5 CFU/mL, 16 h, 37 °C; average of three independent biological repeats
Method: as §1

S. agalactiae CIT 87 = assay: Broth MIC assay; format: cell-based, Streptococcus agalactiae; conditions: broth microdilution in TSBYE, 10^5 CFU/mL, 16 h, 37 °C; average of three independent biological repeats
Method: as §1

[3] = broth microdilution in TSBYE, 10^5 CFU/mL, 16 h, 37 °C, average of three independent biological repeats

Molecule: C=C(NC(=O)[C@@H](NC(=O)[C@H](Cc1c[nH]cn1)NC(=O)[C@@H](NC(=O)[C@@H]1CCCN1C(=O)[C@@H]1CS[C@@H](C)[C@H]2NC(=O)[C@H](C)NC(=O)[C@H](NC(=O)[C@H](CCCCN)NC(=O)[C@H](CCSC)NC(=O)[C@H](CC(N)=O)NC(=O)[C@@H]3CS[C@@H](C)[C@@H](NC(=O)[C@H](CCCCN)NC(=O)[C@@H]4CS[C@@H](C)[C@@H](NC(=O)[C@@H]5CSC[C@@H](NC(=O)[C@H](C)NC(=O)[C@@H](N)[C@@H](C)CC)C(=O)N[C@@H]([C@@H](C)CC)C(=O)NC(=C)C(=O)N[C@@H](CC(C)C)C(=O)N5)C(=O)N5CCC[C@H]5C(=O)NCC(=O)N4)C(=O)NCC(=O)N[C@@H](C)C(=O)N[C@@H](CC(C)C)C(=O)N[C@@H](CCSC)C(=O)NCC(=O)N3)[C@H](C)SC[C@H](NC2=O)C(=O)N[C@@H](Cc2c[nH]cn2)C(=O)N1)C(C)C)C(C)C)C(=O)N[C@@H](CCCCN)C(=O)O [T2A-PV]
- fold decrease in specific activity compared to nisin A (S. agalactiae CIT 67; from MIC): 2 fold
- fold decrease in specific activity compared to nisin PV (S. agalactiae CIT 67; from MIC): 4 fold
- MIC (S. capitis AY41; 16 h): 12.5 * µg/mL
- fold decrease in potency compared to nisin PV (S. capitis AY41; from MIC): 2 fold
- fold increase in potency compared to nisin A (S. capitis AY41; from MIC): 2 fold
- bioactivity (zone of inhibition) of the producing strain [1]: not apparent against the pathogenic isolates

Molecule: CN[C@H](CC(C)C)C(=O)N[C@H]1C(=O)N[C@@H](CC(N)=O)C(=O)N[C@H]2C(=O)N[C@H]3C(=O)N[C@H](C(=O)N[C@H](C(=O)O)c4cc(O)cc(O)c4-c4cc3ccc4O)[C@H](O)c3ccc(c(Cl)c3)Oc3cc2cc(c3O[C@@H]2O[C@H](CO)[C@@H](O)[C@H](O)[C@H]2O[C@H]2C[C@](C)(N)[C@H](O)[C@H](C)O2)Oc2ccc(cc2Cl)[C@H]1O [Vancomycin, vancomycin]
- MIC (S. capitis AR18): 1.56 µg/mL (≈ 1.08 µM)
- MIC (S. capitis AV80): 3.13 µg/mL (≈ 2.16 µM)
- MIC (S. capitis AY41; Staphylococcus capitis, AY41, 16 h): 1.56 µg/mL (≈ 1.08 µM)
- MIC (S. capitis BA06): 1.56 µg/mL (≈ 1.08 µM)
- MIC (S. capitis BD01; Staphylococcus capitis, BD01, 16 h): 3.13 µg/mL (≈ 2.16 µM)

Molecule: nisin 1–28: truncated nisin structure left after NSR cleavage (ITSISLCTPGCKTGALMGCNMKTATCHC; ends and bridges not checked; also: lantibiotic thioether rings (Lan/MeLan) and dehydro residues, places not given here; UniProt P13068 24-51, looked up, fragment)
- decrease in antimicrobial activity compared to nisin [2]: up to 100 fold

Molecule: penicillin
- MIC (S. agalactiae CIT 239): 0.02 µg/mL
- MIC (S. agalactiae CIT 364): 0.02 µg/mL
- MIC (S. agalactiae CIT 67; [3]): 0.04 µg/mL
- MIC (S. agalactiae CIT 85): 0.012 µg/mL
- MIC (S. agalactiae CIT 87): 0.02 µg/mL
- MIC (S. capitis AY41; [3]): 0.39 µg/mL
- MIC (S. capitis BD01; [3]): 6.25 µg/mL

— paper PMC9686653, “Bioengineered Nisin A Derivatives Display Enhanced Activity against Clinical Neonatal Pathogens” (Antibiotics, 2022)
